Test results from ChEMBL document CHEMBL1201862, “PubChem BioAssay data set” (2004).
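Five concentrations, 48 hours, 96-well plates. GI50 is the concentration that inhibits growth by half.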 Activity calls are given as the source filed them. Rule as the data show it: active = GI50 up to about 1.1 µM and inactive = higher.

Columns and labels:
Experiment in all cases: inhibition of tumour cell growth, NCI panel, 48 h
[1] = tested on: HCT-15
[2] = tested on: OVCAR-3
[3] = tested on: HOP-62
[4] = tested on: U-251
[5] = tested on: NCI-H226
[6] = tested on: SK-OV-3
[7] = tested on: NCI-H23
[8] = tested on: EKVX
[9] = tested on: KM12
[10] = tested on: M14
[11] = tested on: OVCAR-4
[12] = tested on: SF-539
[13] = tested on: HL-60
[14] = tested on: K562
[15] = tested on: A549
[16] = tested on: SN12C
[17] = tested on: NCI-H522
[18] = tested on: UACC-257
[19] = tested on: SNB-75
[20] = tested on: SF-268
[21] = tested on: SNB-19
[22] = tested on: OVCAR-5
[23] = tested on: DLD-1
[24] = tested on: HOP-92
[25] = tested on: HT-29
[26] = tested on: MOLT-4
[27] = tested on: SK-MEL-2
[28] = tested on: 786-0
[29] = tested on: XF498
[30] = tested on: SNB-78
[31] = tested on: COLO 205
[32] = tested on: UO-31
[33] = tested on: IGROV-1
[34] = tested on: SF-295
[35] = tested on: SK-MEL-28
[36] = tested on: M19-MEL
[37] = tested on: DMS-114
[38] = tested on: OVCAR-8
[39] = tested on: SK-MEL-5
[40] = tested on: TK-10
[41] = tested on: NCI-H460
[42] = tested on: DMS-273
[43] = tested on: CCRF-CEM
[44] = tested on: HCC 2998
[45] = tested on: ACHN
[46] = tested on: LXFL 529
[47] = tested on: Malme-3M
[48] = tested on: HOP-18
[49] = tested on: HCT-116
[50] = tested on: RPMI-8226
[51] = tested on: RXF 393
[52] = tested on: MCF7
[53] = tested on: NCI/ADR-RES
[54] = tested on: UACC-62
[55] = tested on: BT-549
[56] = tested on: MDA-MB-435
[57] = tested on: LOX IMVI
[58] = tested on: T47D
[59] = tested on: MDA-MB-231
[60] = tested on: KM-20L2
[61] = tested on: SW-620
[62] = tested on: SR
[63] = tested on: MDA-N
[64] = tested on: Hs-578T
[65] = tested on: CAKI-1
[66] = tested on: PC-3
[67] = tested on: A498

Cc1ccc(S(=O)(=O)C(C#N)c2nc3ccccc3nc2-n2ccnc2)cc1 (configuration not stated)
GI50 [1]: > 100 µM | GI50 [2]: > 100 µM (inactive) | GI50 [3]: > 100 µM (inactive) | GI50 [4]: > 100 µM (inactive) | GI50 [5]: 54.8 µM (inactive) | GI50 [6]: > 100 µM (inactive) | GI50 [7]: > 100 µM (inactive) | GI50 [8]: > 100 µM (inactive) | GI50 [9]: > 100 µM (inactive) | GI50 [10]: > 100 µM (inactive) | GI50 [11]: > 100 µM (inactive) | GI50 [12]: > 100 µM (inactive) | GI50 [13]: > 100 µM (inactive) | GI50 [14]: > 100 µM (inactive) | GI50 [15]: > 100 µM (inactive) | GI50 [16]: > 100 µM (inactive) | GI50 [17]: > 100 µM (inactive) | GI50 [18]: > 100 µM (inactive) | GI50 [19]: > 100 µM (inactive) | GI50 [20]: > 100 µM (inactive) | GI50 [21]: > 100 µM (inactive) | GI50 [22]: > 100 µM (inactive) | GI50 [23]: > 100 µM (inactive) | GI50 [24]: > 100 µM (inactive) | GI50 [25]: > 100 µM (inactive) | GI50 [26]: > 100 µM (inactive) | GI50 [27]: > 100 µM (inactive) | GI50 [28]: > 100 µM (inactive) | GI50 [29]: > 100 µM (inactive) | GI50 [30]: > 100 µM (inactive) | GI50 [31]: > 100 µM (inactive) | GI50 [32]: > 100 µM (inactive) | GI50 [33]: > 100 µM (inactive) | GI50 [34]: > 100 µM (inactive) | GI50 [35]: > 100 µM (inactive) | GI50 [36]: > 100 µM (inactive) | GI50 [37]: > 100 µM (inactive) | GI50 [38]: > 100 µM (inactive) | GI50 [39]: > 100 µM (inactive) | GI50 [40]: > 100 µM (inactive) | GI50 [41]: > 100 µM (inactive) | GI50 [42]: > 100 µM (inactive) | GI50 [43]: > 100 µM (inactive) | GI50 [44]: > 100 µM (inactive) | GI50 [45]: > 100 µM (inactive) | GI50 [46]: > 100 µM (inactive) | GI50 [47]: > 100 µM (inactive) | GI50 [48]: > 100 µM (inactive) | GI50 [49]: > 100 µM (inactive) | GI50 [50]: > 100 µM (inactive)

CC(Oc1ccc(Oc2cnc3ccc(Cl)cc3n2)cc1)C(=O)O (configuration not stated)
GI50 [1]: > 74.1 µM | GI50 [51]: > 81.8 µM (inactive) | GI50 [2]: > 84.5 µM (inactive) | GI50 [3]: > 74.5 µM (inactive) | GI50 [52]: 26.6 µM (inactive) | GI50 [4]: > 63.7 µM (inactive) | GI50 [53]: > 95.3 µM (inactive) | GI50 [6]: > 100 µM (inactive) | GI50 [7]: > 76.4 µM (inactive) | GI50 [54]: 65.3 µM (inactive) | GI50 [8]: > 99.8 µM (inactive) | GI50 [9]: > 84.5 µM (inactive) | GI50 [10]: > 91.6 µM (inactive) | GI50 [55]: > 73.1 µM (inactive) | GI50 [11]: > 92.5 µM (inactive) | GI50 [12]: > 65.2 µM (inactive) | GI50 [56]: > 84.5 µM (inactive) | GI50 [14]: > 100 µM (inactive) | GI50 [15]: 81.1 µM (inactive) | GI50 [57]: 51.6 µM (inactive) | GI50 [16]: > 100 µM (inactive) | GI50 [17]: 29.5 µM (inactive) | GI50 [18]: > 86.3 µM (inactive) | GI50 [19]: 84.5 µM (inactive) | GI50 [58]: 84.1 µM (inactive) | GI50 [20]: > 100 µM (inactive) | GI50 [21]: > 62.1 µM (inactive) | GI50 [23]: > 100 µM (inactive) | GI50 [59]: > 89.5 µM (inactive) | GI50 [60]: > 100 µM (inactive) | GI50 [25]: > 95.3 µM (inactive) | GI50 [26]: 11.7 µM (inactive) | GI50 [61]: > 91.6 µM (inactive) | GI50 [27]: > 88.5 µM (inactive) | GI50 [62]: 30.1 µM (inactive) | GI50 [28]: > 81.1 µM (inactive) | GI50 [29]: > 100 µM (inactive) | GI50 [63]: > 86.7 µM (inactive) | GI50 [30]: > 100 µM (inactive) | GI50 [31]: 55.7 µM (inactive) | GI50 [32]: 72.1 µM (inactive) | GI50 [33]: > 64.1 µM (inactive) | GI50 [34]: > 89.9 µM (inactive) | GI50 [64]: > 62.2 µM (inactive) | GI50 [65]: 64.1 µM (inactive) | GI50 [35]: > 76.7 µM (inactive) | GI50 [36]: > 100 µM (inactive) | GI50 [37]: > 100 µM (inactive) | GI50 [38]: > 80.5 µM (inactive) | GI50 [66]: > 100 µM (inactive) | GI50 [39]: 72.3 µM (inactive) | GI50 [40]: > 95.9 µM (inactive) | GI50 [41]: 19.1 µM (inactive) | GI50 [42]: > 100 µM (inactive) | GI50 [44]: > 87.9 µM (inactive) | GI50 [67]: > 62.1 µM (inactive) | GI50 [45]: 60 µM (inactive) | GI50 [46]: > 100 µM (inactive) | GI50 [47]: > 45 µM (inactive) | GI50 [48]: > 100 µM (inactive) | GI50 [49]: 58.7 µM (inactive) | GI50 [50]: > 73.6 µM (inactive)
